# Source: US12581252B2, “Substituted pyrrolo[3,4-b]pyridines as PI3K-α inhibitors” (Relay Therapeutics, Inc., priority 2020, dated 2026)
# Molecular target: H1047R PIK3CA enzyme (Homo sapiens, UniProt P42336, H1047R)
# Assay: ADP-Glo Biochemical PIK3CA Kinase Assay
# H1047R PIK3CA enzyme, sequence (P42336 whole entry H1047R): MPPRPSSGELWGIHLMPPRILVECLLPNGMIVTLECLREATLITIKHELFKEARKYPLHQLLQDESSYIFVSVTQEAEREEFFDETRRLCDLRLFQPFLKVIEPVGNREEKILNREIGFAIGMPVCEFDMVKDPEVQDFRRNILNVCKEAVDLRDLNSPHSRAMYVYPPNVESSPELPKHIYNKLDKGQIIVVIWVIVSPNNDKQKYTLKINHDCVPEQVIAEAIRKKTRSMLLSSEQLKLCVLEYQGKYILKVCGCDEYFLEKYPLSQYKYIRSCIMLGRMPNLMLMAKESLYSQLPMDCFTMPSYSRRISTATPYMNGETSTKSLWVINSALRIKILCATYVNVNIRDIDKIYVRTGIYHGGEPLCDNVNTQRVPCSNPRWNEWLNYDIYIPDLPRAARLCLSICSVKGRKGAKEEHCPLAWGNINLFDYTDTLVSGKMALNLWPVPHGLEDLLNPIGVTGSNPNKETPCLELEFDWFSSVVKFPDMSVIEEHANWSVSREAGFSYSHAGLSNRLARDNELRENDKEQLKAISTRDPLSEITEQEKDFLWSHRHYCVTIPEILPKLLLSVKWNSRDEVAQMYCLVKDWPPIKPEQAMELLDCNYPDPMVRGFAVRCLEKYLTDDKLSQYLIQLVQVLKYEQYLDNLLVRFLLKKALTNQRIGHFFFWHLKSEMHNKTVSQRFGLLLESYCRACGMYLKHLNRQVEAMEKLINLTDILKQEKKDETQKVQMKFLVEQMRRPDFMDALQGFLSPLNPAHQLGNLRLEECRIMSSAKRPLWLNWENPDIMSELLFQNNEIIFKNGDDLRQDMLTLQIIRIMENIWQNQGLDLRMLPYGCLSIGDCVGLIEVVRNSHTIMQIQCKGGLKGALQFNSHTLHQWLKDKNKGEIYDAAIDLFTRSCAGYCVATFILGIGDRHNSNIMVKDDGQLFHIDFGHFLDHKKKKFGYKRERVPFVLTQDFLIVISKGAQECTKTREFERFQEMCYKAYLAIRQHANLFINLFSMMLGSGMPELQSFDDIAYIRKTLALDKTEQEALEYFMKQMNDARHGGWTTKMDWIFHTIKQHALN
# H1047R PIK3CA enzyme, sequence (P27986 whole entry partner): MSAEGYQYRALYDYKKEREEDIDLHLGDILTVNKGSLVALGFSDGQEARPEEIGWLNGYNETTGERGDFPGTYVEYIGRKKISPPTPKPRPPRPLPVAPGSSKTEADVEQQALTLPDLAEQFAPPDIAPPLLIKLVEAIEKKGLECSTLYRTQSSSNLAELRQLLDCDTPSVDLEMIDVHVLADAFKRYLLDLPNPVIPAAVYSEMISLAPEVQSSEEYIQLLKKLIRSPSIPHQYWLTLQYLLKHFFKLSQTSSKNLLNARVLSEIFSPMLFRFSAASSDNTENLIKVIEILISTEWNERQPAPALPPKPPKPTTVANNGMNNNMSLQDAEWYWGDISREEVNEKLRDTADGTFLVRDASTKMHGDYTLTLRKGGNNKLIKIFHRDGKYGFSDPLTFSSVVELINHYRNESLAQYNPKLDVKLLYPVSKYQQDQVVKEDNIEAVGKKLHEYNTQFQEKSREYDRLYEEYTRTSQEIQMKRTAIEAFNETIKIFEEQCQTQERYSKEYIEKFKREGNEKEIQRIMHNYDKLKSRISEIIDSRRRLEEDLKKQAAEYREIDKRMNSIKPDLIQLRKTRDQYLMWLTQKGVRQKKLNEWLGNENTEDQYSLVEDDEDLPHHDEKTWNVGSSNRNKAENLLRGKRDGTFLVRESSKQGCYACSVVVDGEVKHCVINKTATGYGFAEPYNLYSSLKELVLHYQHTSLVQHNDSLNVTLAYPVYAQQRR
row,SMILES,IC50
1,O=C(Nc1cccc2c1C(c1cc(F)ccc1Cl)NC2=O)Nc1n[nH]c2ccccc12 (stereo not shown) [Compound I-2382],1 to 10 µM
2,CC1(Cc2cc(NC(=O)N3CC(O)c4cc(F)ccc43)c3c(c2)C(=O)NC3c2cc(F)ccc2Cl)COC1 (stereo not shown) [Compound I-2490],0.5 to 1 µM
3,O=C(Nc1cc(Br)cc2c1[C@@H](c1cccc(F)c1F)NC2=O)c1cc(F)cc(C(F)(F)F)c1 [Compound I-683],1 to 10 µM
4,C[S+]([O-])c1cc(-c2ccc3ncnn3c2)cc2c1C(c1cc(F)ccc1Cl)NC2=O (stereo not shown) [Compound I-1940],10 to 100 µM
5,"N#Cc1cnn(Cc2cc(NC(=O)N3C[C@@](O)(C(F)(F)F)c4cc(F)ccc43)c3c(c2)C(=O)N[C@@H]3c2cc(F)ccc2Cl)c1 (single isomer, unassigned) [Compound I-2670]",0.5 to 1 µM
6,O=C1N[C@H](c2cc(F)ccc2Cl)c2c(NC(=O)C3(c4cc(F)cc(C(F)(F)F)c4)CCCC3)cc(Br)cc21 [Compound I-2070],10 to 100 µM
7,"CC(C)(O)c1cc(NC(=O)N2C[C@H](O)c3ccccc32)c2c(c1)C(=O)N[C@@H]2c1cc(F)ccc1Cl (single isomer, unassigned) [Compound I-2121]",1 to 10 µM
8,O=C(Nc1ccccc1)Nc1cc(Br)cc2c1[C@H](c1cc(F)ccc1Cl)NC2=O (stereo in doubt) [Compound I-1945],10 to 100 µM
9,Cn1c(Nc2cccc3c2C(c2cc(F)ccc2Cl)NC3=O)nnc1C1CC1 (stereo not shown) [Compound I-880],10 to 100 µM
10,Cc1ccccc1C1NC(=O)c2c(C#N)ncc(NC(=O)c3cc(F)cc(C(F)(F)F)c3)c21 (stereo not shown) [Compound I-236],1 to 10 µM
11,CC(=O)N1CCN(c2cc(-c3ccc4ncnn4c3)cc3c2C(c2cc(F)ccc2Cl)NC3=O)CC1 (stereo not shown) [Compound I-2047],10 to 100 µM
12,"N#CC1(COc2cc(NC(=O)N3C[C@@H](O)c4cc(F)ccc43)c3c(c2)C(=O)N[C@H]3c2cc(F)ccc2Cl)CC1 (single isomer, unassigned) [Compound I-2551]",1 to 10 µM
13,O=C1NC(c2cc(F)ccc2Cl)c2c(NC(=O)C3CCC(O)CC3)cc(-c3ccc4ncnn4c3)cc21 (stereo not shown) [Compound I-1690],10 to 100 µM
14,O=C1NC(c2ccccc2Cl)c2c(NC(=O)c3coc4c(F)cc(F)cc34)ccnc21 (stereo not shown) [Compound I-209],0.5 to 1 µM
15,Cn1ccc(-c2cc(NC(=O)c3cc(F)cc(Cl)c3)c3c(n2)C(=O)NC3c2cc(F)ccc2Cl)cc1=O (stereo not shown) [Compound I-499],0.1 to 0.5 µM
16,COc1ccc(C(=O)Nc2cc(Br)cc3c2C(c2cc(F)ccc2Cl)NC3=O)cc1C(F)(F)F (stereo not shown) [Compound I-877],0.5 to 1 µM
17,O=C(Nc1cc(-c2ccc3ncc(C(F)F)n3c2)cc2c1[C@@H](c1cc(F)ccc1Cl)NC2=O)c1cc(F)cc(C(F)(F)F)c1 [Compound I-1936],0.5 to 1 µM

# Second part, the compound after the results:
row,IC50,SMILES
1,≤ 0.1 µM,N#CCOc1cc(NC(=O)c2cc(F)cc(C(F)(F)F)c2)c2c(c1)C(=O)N[C@H]2c1cc(F)ccc1Cl [Compound I-1888]
2,≤ 0.1 µM,O=C(Nc1cc(-c2cnc3nccn3c2)cc2c1C(c1cc(F)ccc1Cl)NC2=O)c1cc(F)cc(C(F)(F)F)c1 (stereo not shown) [Compound I-825]
3,≤ 0.1 µM,CC(C)(O)c1cc(NC(=O)c2nsc3ccccc23)c2c(c1)C(=O)NC2c1ccccc1C(F)F (stereo not shown) [Compound I-356]
4,0.1 to 0.5 µM,O=C1NC(c2cc(F)ccc2Cl)c2c(NC(=O)C34CC5CC(CC(C5)C3)C4)cccc21 (stereo not shown) [Compound I-876]
5,≤ 0.1 µM,N#C[C@H]1C[C@H](Oc2cc(NC(=O)c3cc(F)cc(C(F)(F)F)c3)c3c(c2)C(=O)N[C@H]3c2cc(F)ccc2Cl)C1 (stereo in doubt) [Compound I-1305]
6,≤ 0.1 µM,NC(=O)Cn1cc(-c2cc(NC(=O)c3cc(F)cc(C(F)(F)F)c3)c3c(c2)C(=O)NC3c2cc(F)ccc2Cl)cn1 (stereo not shown) [Compound I-1481]
7,≤ 0.1 µM,O=C(Nc1cc(-c2ccc(=O)n(C3CC3)c2)cc2c1[C@H](c1cc(F)ccc1Cl)NC2=O)c1cc(F)cc(C(F)(F)F)c1 [Compound I-745]
8,0.1 to 0.5 µM,COc1ccnc(Oc2cc(NC(=O)c3cc(F)cc(C(F)(F)F)c3)c3c(c2)C(=O)NC3c2cc(F)ccc2Cl)n1 (stereo not shown) [Compound I-1143]
